We go through one molecule from ChEMBL document CHEMBL5550203, “A Comprehensive In Vitro Characterization of a New Class of Indole-Based Compounds Developed as Selective Haspin Inhibitors” (J Med Chem, 2024).

Structures are written as SMILES. Where only a bound is given, the exact number is not on record here.

For data set [1] the following is noted: human, plasma, 2 h, 10 µM.
Description: Stability in human plasma at 10 uM measured upto 120 mins by LC-MS analysis
The conditions of data set [2]: rat, plasma, 2 h, 10 µM.
Description: Stability in rat plasma at 10 uM measured upto 120 mins by LC-MS analysis
For data set [3] the following is noted: human, microsomes, 1 h.
A short description of data set [4]: physchem. The conditions noted are these: simulated gastric fluid.
Description: Chemical stability in stimulated gastric fluid assessed as compound remaining at 10 uM measured upto 120 mins by LC-MS analysis
Data set [5] can be described thus: physchem. The note with it: simulated intestinal fluid.
Description: Chemical stability in stimulated intestinal fluid assessed as compound remaining at 10 uM measured upto 120 mins by LC-MS analysis

For `Cc1ccc(NC(=O)c2ccc3c(c2)c(CNCCN2CCNCC2)cn3C)cc1C`, the Stability result in data set [1], in data set [2] and in data set [3] was “Stable” in each case. Also, the share remaining at 2 h, 10 µM in the data set “physchem [4]” and in the data set “physchem [5]” was > 80% each time.
